Measured values published in ChEMBL document CHEMBL5052841, “Usp19 inhibitors for use in therapy” (2020).
One block for each compound: values may come before it. Calls of active or inactive are those of the source. The rule behind the calls is not given here.

Legend:
[1] = target: T1, Ubiquitin carboxyl-terminal hydrolase 19 (Homo sapiens, UniProt O94966); experiment: Inhibition of C-terminal His6-tagged recombinant human USP19 using iso-peptide ubiquitin-Lys-TAMRA as substrate incubated for 30 mins and measured after 90 mins by fluorescent polarization assay
T1 sequence (O94966 whole entry): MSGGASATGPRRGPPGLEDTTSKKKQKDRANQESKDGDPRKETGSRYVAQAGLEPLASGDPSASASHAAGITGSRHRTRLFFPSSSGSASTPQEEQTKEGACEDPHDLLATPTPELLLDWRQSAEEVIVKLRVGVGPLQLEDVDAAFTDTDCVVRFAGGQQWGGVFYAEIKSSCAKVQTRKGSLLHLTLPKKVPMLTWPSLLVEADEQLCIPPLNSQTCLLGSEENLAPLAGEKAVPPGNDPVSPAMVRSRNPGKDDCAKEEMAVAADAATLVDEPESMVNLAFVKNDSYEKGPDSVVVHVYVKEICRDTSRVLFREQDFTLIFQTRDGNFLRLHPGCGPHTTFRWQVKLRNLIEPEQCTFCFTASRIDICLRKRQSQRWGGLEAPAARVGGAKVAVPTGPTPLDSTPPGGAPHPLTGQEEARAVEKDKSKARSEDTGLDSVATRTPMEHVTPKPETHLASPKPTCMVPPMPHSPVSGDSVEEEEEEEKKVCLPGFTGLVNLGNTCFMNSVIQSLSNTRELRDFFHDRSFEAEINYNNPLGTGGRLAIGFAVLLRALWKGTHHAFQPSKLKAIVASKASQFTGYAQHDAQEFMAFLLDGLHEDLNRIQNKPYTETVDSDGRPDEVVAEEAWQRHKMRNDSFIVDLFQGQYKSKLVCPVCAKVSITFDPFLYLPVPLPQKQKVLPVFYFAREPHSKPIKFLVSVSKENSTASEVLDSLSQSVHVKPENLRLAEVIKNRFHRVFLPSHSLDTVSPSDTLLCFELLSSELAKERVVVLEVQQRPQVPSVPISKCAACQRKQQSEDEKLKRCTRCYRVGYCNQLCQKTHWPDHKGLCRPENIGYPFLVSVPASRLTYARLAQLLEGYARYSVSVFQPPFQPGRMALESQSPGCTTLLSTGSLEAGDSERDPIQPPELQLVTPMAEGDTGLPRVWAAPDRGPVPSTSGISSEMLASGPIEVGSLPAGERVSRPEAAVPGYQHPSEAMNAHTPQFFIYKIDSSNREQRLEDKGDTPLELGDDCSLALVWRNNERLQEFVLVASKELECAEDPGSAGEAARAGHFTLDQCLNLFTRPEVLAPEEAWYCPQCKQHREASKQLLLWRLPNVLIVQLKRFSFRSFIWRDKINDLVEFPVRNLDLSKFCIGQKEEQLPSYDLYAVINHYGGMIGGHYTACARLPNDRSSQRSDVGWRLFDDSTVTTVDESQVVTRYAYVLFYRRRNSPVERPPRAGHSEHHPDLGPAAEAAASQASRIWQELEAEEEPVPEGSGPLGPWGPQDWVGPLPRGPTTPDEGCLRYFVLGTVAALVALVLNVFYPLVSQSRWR

[2] = target: T1, Ubiquitin carboxyl-terminal hydrolase 19; experiment: Inhibition of USP19 (unknown origin) in breast cancer cell measured by cell target engagement assay; set-up: species or system Breast cancer cell line
[3] = target: T1, Ubiquitin carboxyl-terminal hydrolase 19; experiment: Inhibition of USP19 (unknown origin) in neuroblastoma cell measured by cell target engagement assay; format: cell-based
[4] = Inhibition of USP19 in mouse skeletal muscle cell measured by cell target engagement assay; format: cell-based
Mus musculus [5] = experiment: Protection against sciatic nerve denervation-induced muscular atrophy in male C57BL/6 mouse assessed as lower loss of tibialis anterior muscle at 75 mg/kg, ip administered twice daily; format: functional, organism-based
Mus musculus [6] = experiment: Protection against sciatic nerve denervation-induced muscular atrophy in male C57BL/6 mouse assessed as decrease in muscle wasting in gastrocnemius muscle at 75 mg/kg, ip administered twice daily; format: functional, organism-based
Mus musculus [7] = experiment: Antiobesity activity in high-fat diet-induced obesity model of male C57BL/6J mouse assessed as reduction in epididymal fat mass at 5 to 25 mg/kg, ip administered twice daily; format: functional, organism-based; details: dose 5-25 mg/kg
Mus musculus [8] = experiment: Antiobesity activity in high-fat diet-induced obesity model of male C57BL/6J mouse assessed as increase in liver mass at 5 to 25 mg/kg, ip administered twice daily; format: functional, organism-based; details: dose 5-25 mg/kg
Mus musculus [9] = experiment: Antiobesity activity in high-fat diet-induced obesity model of male C57BL/6J mouse assessed as decrease in body weight gain at 5 to 25 mg/kg, ip administered twice daily; format: functional, organism-based; details: dose 5-25 mg/kg
Mus musculus [10] = experiment: Antiobesity activity in high-fat diet-induced obesity model of male C57BL/6J mouse assessed as reduction in fat mass at 5 to 25 mg/kg, ip administered twice daily; format: functional; set-up: scale not given: the % may be the effect or the level left; details: dose 5-25 mg/kg
Mus musculus [11] = experiment: Antiobesity activity in high-fat diet-induced obesity model of male C57BL/6J mouse assessed as reduction in lean mass at 5 to 25 mg/kg, ip administered twice daily; format: functional; set-up: scale not given: the % may be the effect or the level left; details: dose 5-25 mg/kg
[12] = Toxicity in high-fat diet-induced obesity model of male C57BL/6J mouse assessed as decrease in total body weight at 25 mg/kg, ip administered twice daily; format: organism-based; set-up: scale not given: the % may be the effect or the level left; details: in vivo
[13] = Toxicity in high-fat diet-induced obesity model of male C57BL/6J mouse assessed as effect on body water content at 5 mg/kg, ip administered twice daily; format: organism-based; details: in vivo
[14] = Toxicity in high-fat diet-induced obesity model of male C57BL/6J mouse assessed as increase in body water content at 25 mg/kg, ip administered twice daily; format: organism-based; details: in vivo
[15] = Toxicity in high-fat diet-induced obesity model of male C57BL/6J mouse assessed as reduction in body fat at 25 mg/kg, ip administered twice daily; format: organism-based; set-up: scale not given: the % may be the effect or the level left; details: in vivo
[16] = Toxicity in high-fat diet-induced obesity model of male C57BL/6J mouse assessed as decrease in total protein content at 25 mg/kg, ip administered twice daily; format: organism-based; set-up: scale not given: the % may be the effect or the level left; details: in vivo
[17] = Toxicity in high-fat diet-induced obesity model of male C57BL/6J mouse assessed as effect on total protein content at 5 mg/kg, ip administered twice daily; format: organism-based; details: in vivo
[18] = Toxicity in high-fat diet-induced obesity model of male C57BL/6J mouse assessed as decrease in total ash content at 25 mg/kg, ip administered twice daily; format: organism-based; set-up: scale not given: the % may be the effect or the level left; details: in vivo
Mus musculus [19] = experiment: Anti-diabetic activity in high-fat diet-induced obesity model of male C57BL/6J mouse assessed as decrease in plasma glucose at 25 mg/kg, ip administered twice daily; format: functional, organism-based
Mus musculus [20] = experiment: Anti-diabetic activity in high-fat diet-induced obesity model of male C57BL/6J mouse assessed as decrease in plasma insulin at 25 mg/kg, ip administered twice daily; format: functional, organism-based
[21] = Toxicity in high-fat diet-induced obesity model of male C57BL/6J mouse assessed as decrease in total body weight at 0.1 mg/kg, sc administered twice daily; format: organism-based; set-up: scale not given: the % may be the effect or the level left; details: in vivo
[22] = Toxicity in high-fat diet-induced obesity model of male C57BL/6J mouse assessed as decrease in body water content at 0.1 mg/kg, sc administered twice daily; format: organism-based; set-up: scale not given: the % may be the effect or the level left; details: in vivo
[23] = Toxicity in high-fat diet-induced obesity model of male C57BL/6J mouse assessed as reduction in body fat at 0.1 mg/kg, sc administered twice daily; format: organism-based; set-up: scale not given: the % may be the effect or the level left; details: in vivo
[24] = Toxicity in high-fat diet-induced obesity model of male C57BL/6J mouse assessed as decrease in total protein content at 0.1 mg/kg, sc administered twice daily; format: organism-based; set-up: scale not given: the % may be the effect or the level left; details: in vivo
[25] = Toxicity in high-fat diet-induced obesity model of male C57BL/6J mouse assessed as decrease in total ash content at 0.1 mg/kg, sc administered twice daily; format: organism-based; set-up: scale not given: the % may be the effect or the level left; details: in vivo

IC50 [1]: ≥ 50000 nM
Compound: O=C(C(F)CC1CCCCC1)N1CCC(O)(Cn2cnc(-c3ccccc3F)cc2=O)CC1 (racemic)

IC50 [1]: < 500 nM | EC50 [2]: 9.9 nM | EC50 [3]: 32.8 nM | EC50 [4]: 13.5 nM
Compound: C[C@H](CC1CCCCC1)C(=O)N1CC[C@@](O)(Cn2cc(C(=O)N3CCNCC3)c(-c3ccccc3)cc2=O)C2(CCCC2)C1
Activity (Mus musculus [5]): Active | Activity (Mus musculus [6]): Active | Activity (Mus musculus [7]): Active | Activity (Mus musculus [8]): Active | Activity (Mus musculus [9]): Active | Activity (Mus musculus [10]): 24% | Activity (Mus musculus [11]): -3% | Activity [12]: 13% | Activity [13]: Non-Toxic | Activity [14]: 11.4% | Activity [15]: 24.9% | Activity [16]: -7.2% | Activity [17]: Non-Toxic | Activity [18]: -9.6% | Activity (Mus musculus [19]): Active | Activity (Mus musculus [20]): Active

IC50 [1]: < 500 nM
Compound: CC(C)N(C)C(=O)c1cn(C[C@]2(O)CCN(C(=O)[C@H](C)CC3CCCCC3)CC2(C)C)c(=O)cc1-c1ccccc1

IC50 [1]: < 500 nM
Compound: C[C@H](CC1CCCCC1)C(=O)N1CC[C@@](O)(Cn2cc(C(=O)N3CCCC3)c(-c3ccccc3)cc2=O)C(C)(C)C1

IC50 [1]: < 500 nM
Compound: O=C(c1cn(C[C@]2(O)CCN(C(=O)[C@H](CO)CC(F)(F)F)CC23CCCC3)c(=O)cc1-c1ccccc1)N1CCNCC1

IC50 [1]: ≥ 5000 nM
Compound: CC(Cc1ccccc1)C(=O)N1CCC(O)(Cn2cnc(-c3ccccc3F)cc2=O)CC1 (racemic)

Continued, compound first:

Compound: CCOC(=O)c1cn(C[C@]2(O)CCN(C(=O)[C@H](C)CC3CCCCC3)CC23CCCC3)c(=O)cc1-c1ccccc1
IC50 [1]: < 500 nM

Compound: CC(OC1CCCCC1)C(=O)N1CCC(O)(Cn2cnc(-c3ccccc3F)cc2=O)C(C)(C)C1 (configuration not stated)
IC50 [1]: ≥ 50000 nM

Compound: C[C@H](CC1CCCCC1)C(=O)N1CC[C@@](O)(Cn2cc(C(=O)N(C)C)c(-c3ccccc3)cc2=O)C(C)(C)C1
IC50 [1]: < 500 nM

Compound: CCCCCCCCCCCCCCCC(=O)N[C@@H](CCC(=O)NCCCC[C@H](NC(=O)[C@H](C)NC(=O)[C@H](C)NC(=O)[C@H](CCC(N)=O)NC(=O)CNC(=O)[C@H](CCC(=O)O)NC(=O)[C@H](CC(C)C)NC(=O)[C@H](Cc1ccc(O)cc1)NC(=O)[C@H](CO)NC(=O)[C@H](CO)NC(=O)[C@@H](NC(=O)[C@H](CC(=O)O)NC(=O)[C@H](CO)NC(=O)[C@@H](NC(=O)[C@H](Cc1ccccc1)NC(=O)[C@@H](NC(=O)CNC(=O)[C@H](CCC(=O)O)NC(=O)[C@H](C)NC(=O)[C@@H](N)Cc1cnc[nH]1)[C@@H](C)O)[C@@H](C)O)C(C)C)C(=O)N[C@@H](CCC(=O)O)C(=O)N[C@@H](Cc1ccccc1)C(=O)N[C@H](C(=O)N[C@@H](C)C(=O)N[C@@H](Cc1c[nH]c2ccccc12)C(=O)N[C@@H](CC(C)C)C(=O)N[C@H](C(=O)N[C@@H](CCCNC(=N)N)C(=O)NCC(=O)N[C@@H](CCCNC(=N)N)C(=O)NCC(=O)O)C(C)C)[C@@H](C)CC)C(=O)O [LIRAGLUTIDE]
Activity [21]: 13% | Activity [22]: -8.6% | Activity [23]: 17.4% | Activity [24]: -7.9% | Activity [25]: -11.6%

Compound: C[C@H](CC(F)(F)F)C(=O)N1CC[C@@](O)(Cn2cnc(-c3cccc(F)c3)cc2=O)C2(CCCC2)C1
IC50 [1]: < 500 nM

Compound: O=C(CCc1ccccc1)N1CCC(O)(Cn2cnc(-c3ccccc3F)cc2=O)CC1
IC50 [1]: ≥ 50000 nM

Compound: C[C@H](CC1CCCCC1)C(=O)N1CC[C@@](O)(Cn2cc(C(=O)N3CCNC[C@H]3CO)c(-c3ccccc3)cc2=O)C(C)(C)C1
IC50 [1]: < 500 nM

Compound: C[C@H](CC(F)(F)F)C(=O)N1CC[C@@](O)(Cn2cc(C(=O)N3CCOCC3)c(-c3ccccc3)cc2=O)C2(CCCC2)C1
IC50 [1]: < 500 nM
